In patent US9932627B2, “Method for determination of the length of the G-tail sequence and kit for the method” (HIROSHIMA UNIVERSITY, priority 2005, dated 2018):

Tests used:
SiHa cancer cell [1] = test: G tail length measurement by G tail HPA on nondenatured genomic DNA of treated cells; assay type: cell-based, human; settings: treated with telomestatin (5 μm) for 48 hours, nondenatured DNA 5 μg, control C = 220
Description: (§1) The hydrolysis of the AE in an unhybridized probe was performed by charging 300 μL of a hydrolysis buffer (0.6 mol/L tetrasodium borate buffer containing 50 mL/L of Triton X-100, pH 8.5) into each reaction tube, stirring the mixture vigorously with a Vortex mixer, and incubating the mixture at 60° C. for 10 minutes. The AE in the hybridized probe was not hydrolyzed under the above-described condition. These tubes were cooled on ice for 1 minute or more, and the chemiluminescence in each tube was measured with a luminometer (trade name: Leader 1, manufactured by Gene Probe Inc.) for 2 seconds.
For the confirmation of nondenatured genomic DNA dose response by the measuring method according to the invention, SiHa cancer cell line-derived nondenatured genomic DNA samples in various amounts (1 μg, 3 μg, 5 μg, 10 μg and 20 μg) and the AE-labeled G tail HPA probe in an amount of 3×10^6 rlu were hybridized with each other. Specifically for detection of the telomere 3′-tail (G tail) in genomic DNA, the total amount of the DNA solution in a Falcon 352053 tube (trade name) was adjusted to 100 μL with sterile water or a TE buffer (10 mM Tris/HCl, 1 mM EDTA, pH 8.0). […]

SiHa cancer cell [2] = test: Entire telomere length by telomere HPA on denatured DNA (JP 2001-95586, Comparative Example); assay type: cell-based, human; settings: treated with telomestatin (5 μm) for 48 hours, denatured DNA 0.5 μg, control C = 4500
Description: (§2) The dominant negative allelic gene (TRF2^ΔBΔM) was infected to various cells (HeLa cancer cell, SiHa cancer cell, MCF-7 cancer cell, MRC-5-hTERT normal fibroblast, and 90p normal mammary epithelial cell) according to a method similar to that in <9-3>; The nondenatured DNA was isolated from each cell (HeLa cancer cell, SiHa cancer cell, MCF-7 cancer cell, MRC-5-hTERT normal fibroblast, and 90p normal mammary epithelial cell) according to a method similar to that in <4-2>; The nondenatured DNA (5 μg) was used in the G tail measuring method according to the present invention for measurement of the G tail length; and, as a Comparative Example, the measuring method described in Japanese Unexamined Patent Publication No. 2001-95586 was applied to each denatured DNA (0.5 μg) for measurement of the entire telomere length. ExoI treatment was performed similarly to the method described in <4-3> and culture of the cells used, similarly to the method described in <9-2>.
FIG. 11a is a graph showing the results of measuring G tail by the measuring method according to the invention. FIG. 11b is a graph showing the results of measuring the total telomere length by the measuring method described in Japanese Unexamined Patent Publication No. 2001-95586 as a Comparative Example. […]

[3] = tested on: 90p normal mammary epithelial cell; test: G tail length measurement by G tail HPA on nondenatured genomic DNA of treated cells; assay type: cell-based; settings: treated with telomestatin (5 μm) for 48 hours, nondenatured DNA 5 μg, control C = 98
Description: as §1
(§3) For the confirmation of nondenatured genomic DNA dose response by the measuring method according to the invention, SiHa cancer cell line-derived nondenatured genomic DNA samples in various amounts (1 μg, 3 μg, 5 μg, 10 μg and 20 μg) and the AE-labeled G tail HPA probe in an amount of 3×10^6 rlu were hybridized with each other. Specifically for detection of the telomere 3′-tail (G tail) in genomic DNA, the total amount of the DNA solution in a Falcon 352053 tube (trade name) was adjusted to 100 μL with sterile water or a TE buffer (10 mM Tris/HCl, 1 mM EDTA, pH 8.0). The AE-labeled G tail HPA probe in an amount of 3×10^6 rlu dissolved in 100-μL of the hybridization buffer was added to the DNA solution, and the mixture was stirred thoroughly with a Vortex mixer and incubated at 60° C. for 20 minutes. The hydrolysis of the AE in unhybridized probe and the detection of the chemiluminescence were performed under a condition similar to that in <1-2>.
(§4) In the present invention, the nondenatured genomic DNA may not be isolated for use, but the nondenatured genomic DNA used in the confirmation test <4-1> was previously isolated in the following manner: The nondenatured genomic DNA used for G tail length measurement was isolated from each cell line by using the phenol-chloroform extraction method. Specifically, cells were centrifuged in an Eppendorf-micro centrifuge tube at 6,000 rpm and 4° C. for 5 minutes, to give a pellet in the microtube. The pellet was washed once with PBS(−) and resuspended in an extraction buffer containing 10 mM Tris buffer (pH 7.6), 150 mM NaCl and NP-40, to a final concentration of 0.5%. After proteinase K digestion, phenol-chloroform extraction was performed twice. The genomic DNA was precipitated with ethanol, treated with RNase A, and then, dissolved in a TE buffer. […]

MCF-7 cancer cell [4] = test: as above; assay type: cell-based; settings: treated with telomestatin (5 μm) for 48 hours, nondenatured DNA 5 μg, control C = 212
Description: as §1, §3, §4

HeLa cancer cell [5] = test: as above; assay type: cell-based; settings: treated with telomestatin (5 μm) for 48 hours, nondenatured DNA 5 μg, control C = 126
Description: as §1, §3, §4

[6] = tested on: MRC-5-hTERT normal fibroblast; test: as above; assay type: cell-based; settings: treated with telomestatin (5 μm) for 48 hours, nondenatured DNA 5 μg, control C = 96
Description: as §1, §3, §4

[7] = tested on: 90p normal mammary epithelial cell; test: Entire telomere length by telomere HPA on denatured DNA (JP 2001-95586, Comparative Example); assay type: cell-based; settings: treated with telomestatin (5 μm) for 48 hours, denatured DNA 0.5 μg, control C = 3500
Description: as §2
(§5) FIG. 11a is a graph showing the results of measuring G tail by the measuring method according to the invention. FIG. 11b is a graph showing the results of measuring the total telomere length by the measuring method described in Japanese Unexamined Patent Publication No. 2001-95586 as a Comparative Example. In FIG. 11a, “C” represents a control; “T” represents a cell treated with a G tail-shortening medicine telomestatin (5 μm) for 48 hours; represents a ExoI-treated cell; and − represents an untreated cell. […] In FIG. 11b, “C” represents a control; and “T” represents a cell previously treated with a G tail-shortening medicine telomestatin (5 μm) for 48 hours.
(§6) Thus apparently in the measuring method described in Patent Document 1 (Japanese Unexamined Patent Publication No. 2001-95586), the G tail length gives signal intensity only at a noise level within the range of the operation and measurement error, prohibiting G tail measurement. Then, the values on the ordinate in FIG. 11a were converted to average G tail lengths by using the calibration curve shown in FIG. 2 and the values on the ordinate in FIG. 11b to the entire telomere lengths, to give the following results shown in Table 4.

MCF-7 cancer cell [8] = test: as above; assay type: cell-based; settings: treated with telomestatin (5 μm) for 48 hours, denatured DNA 0.5 μg, control C = 4000
Description: as §2, §5, §6

HeLa cancer cell [9] = test: as above; assay type: cell-based; settings: treated with telomestatin (5 μm) for 48 hours, denatured DNA 0.5 μg, control C = 4700
Description: as §2, §5, §6

[10] = tested on: MRC-5-hTERT normal fibroblast; test: as above; assay type: cell-based; settings: treated with telomestatin (5 μm) for 48 hours, denatured DNA 0.5 μg, control C = 6800
Description: as §2, §5, §6

In the case of `Cc1oc2nc1-c1nc(co1)-c1nc(co1)-c1nc(co1)-c1nc(co1)-c1nc(co1)C1=NC(CS1)c1nc-2c(C)o1` (stereo not shown) [telomestatin], the “Average G tail length (nt)” value (SiHa cancer cell [1]) is reported as 121 nt, the “Entire telomere length (nt)” value (SiHa cancer cell [2]) is reported as 4600 nt and the “Average G tail length (nt)” value [3] is reported as 96 nt. The “Average G tail length (nt)” value (MCF-7 cancer cell [4]) was 162 nt, the “Average G tail length (nt)” value (HeLa cancer cell [5]) was 89 nt and the “Average G tail length (nt)” value [6] was 96.5 nt. The “Entire telomere length (nt)” value [7] was 3450 nt, the “Entire telomere length (nt)” value (MCF-7 cancer cell [8]) was 3900 nt and the “Entire telomere length (nt)” value (HeLa cancer cell [9]) was 4600 nt. For the same compound, the “Entire telomere length (nt)” value [10] was 6750 nt.
